SMILES strings stand for the structures.

A short description of this series: physchem.
Description: Ionization constant (pKa)
Take `CS(=O)(=O)Nc1ccc(Nc2c3ccc(Cl)cc3nc3ccc(N)cc23)cc1`: the pKa came out at 6.56.

`CCc1ccc2nc3ccccc3c(Nc3ccc(NS(C)(=O)=O)cc3OC)c2c1` gave a pKa of 7.46.

`CS(=O)(=O)Nc1ccc(Nc2c3ccccc3nc3c(CO)cccc23)cc1` gave a pKa of 6.68.

Compound `COc1cc(NS(C)(=O)=O)ccc1Nc1c2ccc(C)cc2nc2c(C)cccc12` returned a pKa of 7.67.

`COc1cc(NS(C)(=O)=O)ccc1Nc1c2ccc([N+](=O)[O-])cc2nc2c(OC)cccc12` displayed a pKa of 5.68.

The compound `COc1ccc2c(Nc3ccc(NS(C)(=O)=O)cc3)c3ccc(Cl)cc3nc2c1` returned a pKa of 6.91.

`COc1cc(NS(C)(=O)=O)ccc1Nc1c2ccc(Cl)cc2nc2cc(Cl)ccc12` yielded a pKa of 6.18.

Compound `COc1cc(NS(C)(=O)=O)ccc1Nc1c2ccccc2nc2cc(CCC(N)=O)ccc12` returned a pKa of 7.5.

In the case of `CCC(=O)Nc1ccc2c(Nc3ccc(NS(C)(=O)=O)cc3)c3ccccc3nc2c1`, the pKa came to 7.35. The pKa values of the last two compounds are within 0.2 log units of each other.

For `COc1cc(NS(C)(=O)=O)ccc1Nc1c2ccc(Br)cc2nc2cc(Br)ccc12`, the pKa was determined as 6.17.

Compound `CS(=O)(=O)Nc1ccc(Nc2c3ccccc3nc3cc(Cl)c(N)cc23)cc1` yielded a pKa of 6.71.

`COc1cc(NS(C)(=O)=O)ccc1Nc1c2ccccc2nc2ccncc12`: the pKa turned out to be 5.94.

The compound `COc1cc(NS(C)(=O)=O)ccc1Nc1c2ccc(N=[N+]=[N-])cc2nc2c(C)cccc12` had a pKa of 7.22.

On to `COc1cc(NS(C)(=O)=O)ccc1Nc1c2cccc(OC)c2nc2c(OC)cccc12`, for which the pKa was determined as 6.9.

`COc1cc(NS(C)(=O)=O)ccc1Nc1c2ccc([N+](=O)[O-])cc2nc2cc([N+](=O)[O-])ccc12` came in with a pKa of 3.82.

As for `COc1cc(NS(C)(=O)=O)ccc1Nc1c2ccccc2nc2cccc([N+](=O)[O-])c12`, the pKa was 4.98.

In the case of `CNc1ccc2c(Nc3ccc(NS(C)(=O)=O)cc3OC)c3ccccc3nc2c1`, the pKa worked out at 9.5.

In the case of `Cc1ccc2c(Nc3ccc(NS(C)(=O)=O)cc3)c3ccc([N+](=O)[O-])cc3nc2c1`, the pKa was 5.81.

`CCc1cccc2c(Nc3ccc(NS(C)(=O)=O)cc3)c3ccccc3nc12` came in with a pKa of 7.14.

As to `COc1cc(NS(C)(=O)=O)ccc1Nc1c2ccccc2nc2cc(N=[N+]=[N-])ccc12`, the pKa was 7.26.

On to `COc1cc(NS(C)(=O)=O)ccc1Nc1c2ccc(I)cc2nc2c(OC)cccc12`, for which the pKa was determined as 6.74.

The compound `COc1ccc2nc3cc(Cl)ccc3c(Nc3ccc(NS(C)(=O)=O)cc3OC)c2c1` returned a pKa of 6.52.

As to `COc1cc(NS(C)(=O)=O)ccc1Nc1c2ccc(I)cc2nc2ccc(N)cc12`, the pKa was determined as 6.72.

Compound `CS(=O)(=O)Nc1ccc(Nc2c3ccccc3nc3cc(F)ccc23)cc1` returned a pKa of 6.77. This pKa and that of the compound before are within 0.2 log units of each other.

For the compound `COc1cc(NS(C)(=O)=O)ccc1Nc1c2ccccc2nc2cc(C(F)(F)F)c(N)cc12`, the pKa turned out to be 6.56.

`CCCOc1cccc2c(Nc3ccc(NS(C)(=O)=O)cc3OC)c3ccccc3nc12`: the pKa came to 7.36.

`COc1cc(NS(C)(=O)=O)ccc1Nc1c2ccccc2nc2cc(NC(C)=O)ccc12`: the pKa is 7.77.

For the compound `COc1cc(NS(C)(=O)=O)ccc1Nc1c2ccc(N)cc2nc2c(C)cccc12`, the pKa stood at 9.88.

With `CN(C)c1ccc2nc3ccccc3c(Nc3ccc(NS(C)(=O)=O)cc3)c2c1`, the pKa stood at 7.27.

Take `COc1cc(NS(C)(=O)=O)ccc1Nc1c2ccccc2nc2cc(C(C)(C)C)ccc12`: the pKa came out at 7.64.

Take `CC(=O)Nc1ccc2c(Nc3ccc(NS(C)(=O)=O)cc3)c3ccc(NC(C)=O)cc3nc2c1`: the pKa is 7.55.

`CN(C)/N=N/c1ccc2c(Nc3ccc(NS(C)(=O)=O)cc3)c3ccccc3nc2c1`: the pKa was 7.13.

The compound `COc1cc(NS(C)(=O)=O)ccc1Nc1c2ccccc2nc2cccc(C)c12` registered a pKa of 6.71.

The compound `COc1ccc2[nH]c3ccccc3c(=Nc3ccc(NS(C)(=O)=O)cc3OC)c2c1` returned a pKa of 7.1.

Regarding `COc1cc(NS(C)(=O)=O)ccc1N=c1c2ccccc2[nH]c2ccc(C(C)(C)C)cc12`, the pKa was determined as 7.38.

In turn, `COc1cc(NS(C)(=O)=O)ccc1N=c1c2ccccc2[nH]c2ccc(C(N)=O)cc12` displayed a pKa of 6.59.

Take `COc1cc(NS(C)(=O)=O)ccc1Nc1c2ccccc2nc2ccc(Cl)cc12`: the pKa came out at 6.69. The pKa values of the last two compounds are within 0.2 log units of each other.

The compound `COc1cc(NS(C)(=O)=O)ccc1Nc1c2ccccc2nc2cc(N)ccc12` yielded a pKa of 7.36.

Regarding `Cc1cc(NS(C)(=O)=O)ccc1Nc1c2ccccc2nc2ccccc12`, the pKa was 7.36.

Compound `CCCNc1ccc(Nc2c3ccccc3nc3ccccc23)cc1` showed a pKa of 8.24.

Turning to `Cc1cc(NS(C)(=O)=O)ccc1Nc1c2ccccc2nc2c(C)cccc12`, the pKa came to 7.39.

The compound `COc1cc(NS(C)(=O)=O)ccc1Nc1c2ccccc2nc2ccc([N+](=O)[O-])cc12` gave a pKa of 5.63.

`COc1cc(NS(=O)(=O)OC)ccc1Nc1c2ccccc2nc2c(CCC(N)=O)cccc12` showed a pKa of 7.15.

In turn, `CS(=O)(=O)Nc1ccc(NS(C)(=O)=O)c(Nc2c3ccccc3nc3ccccc23)c1` had a pKa of 6.02.

`COc1cc(NS(C)(=O)=O)ccc1Nc1c2ccccc2nc2cc(Br)c(N)cc12` gave a pKa of 7.01.

`COc1cc(NS(C)(=O)=O)ccc1Nc1c2ccccc2nc2c(C)c(C)ccc12` showed a pKa of 7.65.

In the case of `Cc1ccc2c(Nc3ccc(NS(C)(=O)=O)cc3)c3cccc(C)c3nc2c1`, the pKa stood at 7.46.

Compound `COc1cc(NS(C)(=O)=O)ccc1Nc1c2ccc(I)cc2nc2c(OCC(O)CO)cccc12` (stereo not drawn) gave a pKa of 6.7.

As for `COc1cc(NS(C)(=O)=O)ccc1Nc1c2ccc(Cl)cc2nc2c(OC)cccc12`, the pKa came out at 6.79. This pKa and that of the compound before are within 0.2 log units of each other.

In turn, `COc1cc(NS(C)(=O)=O)ccc1Nc1c2ccccc2nc2c(C)c(Cl)ccc12` yielded a pKa of 6.71.

In the case of `O=[N+]([O-])c1ccc2nc3ccccc3c(Nc3ccccc3)c2c1`, the pKa is 6.26.

In the case of `CCCCOc1cccc2c(Nc3ccc(NS(C)(=O)=O)cc3OC)c3ccccc3nc12`, the pKa worked out at 7.34.

In turn, `COc1cc(NS(C)(=O)=O)ccc1Nc1c2ccccc2nc2cccnc12` returned a pKa of 7.19.

`COc1cc(NS(C)(=O)=O)ccc1Nc1c2ccccc2nc2cc(S(C)(=O)=O)ccc12`: the pKa worked out at 5.87.

Compound `COc1cc(NS(C)(=O)=O)ccc1Nc1c2cccc(C)c2nc2c(C)cccc12` displayed a pKa of 6.91.

As to `COS(=O)(=O)Nc1ccc(Nc2c3ccccc3nc3cc(Cl)ccc23)cc1`, the pKa came to 6.57.

Consider `CS(=O)(=O)Nc1ccc(Nc2c3ccccc3nc3ccccc23)cc1[N+](=O)[O-]`, for which the pKa came out at 5.42.

Consider `CCCC(=O)Nc1ccc2c(Nc3ccc(NS(C)(=O)=O)cc3)c3ccccc3nc2c1`, for which the pKa is 7.37.

Compound `COc1cc(NS(C)(=O)=O)ccc1Nc1c2ccc(C)cc2nc2cc([N+](=O)[O-])ccc12` registered a pKa of 6.03.

Compound `COc1cc(NS(C)(=O)=O)ccc1Nc1c2ccccc2nc2c(OC3OC(CO)C(O)C(O)C3NC(C)=O)cccc12` (stereo not drawn) gave a pKa of 6.35.

The compound `COc1ccccc1Nc1c2ccccc2nc2ccc(C(C)C)c(NS(C)(=O)=O)c12` came in with a pKa of 7.4.

`COc1cc(NS(C)(=O)=O)ccc1Nc1c2ccccc2nc2c(C(=O)NCCO)cccc12` showed a pKa of 6.34.

`COc1cc(NS(C)(=O)=O)ccc1Nc1c2ccccc2nc2c(OCC(O)CO)cccc12` (stereo in doubt; 303) had a pKa of 7.

The record behind these values is ChEMBL document CHEMBL1122023, “Potential antitumor agents. 36. Quantitative relationships between experimental antitumor activity, toxicity, and structure for the general class of 9-anilinoacridine antitumor agents” (J Med Chem, 1982).
